Measurements from ChEMBL document CHEMBL3822434 (Bioorg Med Chem, 2016).
In brackets after ≈: the same amount, converted by molar mass.

Columns and labels:
[1] = Intrinsic clearance in human liver microsomes at 1 uM after 30 mins in presence of NADPH by LC-MS/MS analysis; type: ADME; conditions: read-out: CLH
[2] = Solubility in fasted state simulated intestinal fluid irradiated ultrasonically for 10 mins followed by incubation for 24 hrs by HPLC-UV analysis; type: ADME
[3] = Solubility in 50 mM phosphate buffer at pH 6.5 irradiated ultrasonically for 10 mins followed by incubation for 24 hrs by HPLC-UV analysis; type: physicochemical
[4] = Intrinsic clearance in mouse liver microsomes at 1 uM after 30 mins in presence of NADPH by LC-MS/MS analysis; type: ADME; conditions: read-out: CLH
Liver cytosol [5] = assay: Drug metabolism in human liver cytosol at 1 uM assessed as N-(2-Methoxy-4-((3-(4-methylpiperazin-1-yl)propyl)carbamoyl)phenyl)-4-oxo-3,4-dihydrothieno[3,2-d]pyrimidine-7-carboxamide formation after 30 mins in presence of NADPH by LC-MS/MS analysis; type: ADME; conditions: 0.5 h
[6] = Drug metabolism in mouse liver cytosol at 1 uM assessed as N-(2-Methoxy-4-((3-(4-methylpiperazin-1-yl)propyl)carbamoyl)phenyl)-4-oxo-3,4-dihydrothieno[3,2-d]pyrimidine-7-carboxamide formation after 30 mins in presence of NADPH by LC-MS/MS analysis; type: ADME; conditions: 0.5 h
[7] = target: T1, Mitogen-activated protein kinase kinase kinase 7 (Homo sapiens, UniProt O43318); assay: Inhibition of recombinant TAK1 (unknown origin)
T1 sequence (O43318 whole entry): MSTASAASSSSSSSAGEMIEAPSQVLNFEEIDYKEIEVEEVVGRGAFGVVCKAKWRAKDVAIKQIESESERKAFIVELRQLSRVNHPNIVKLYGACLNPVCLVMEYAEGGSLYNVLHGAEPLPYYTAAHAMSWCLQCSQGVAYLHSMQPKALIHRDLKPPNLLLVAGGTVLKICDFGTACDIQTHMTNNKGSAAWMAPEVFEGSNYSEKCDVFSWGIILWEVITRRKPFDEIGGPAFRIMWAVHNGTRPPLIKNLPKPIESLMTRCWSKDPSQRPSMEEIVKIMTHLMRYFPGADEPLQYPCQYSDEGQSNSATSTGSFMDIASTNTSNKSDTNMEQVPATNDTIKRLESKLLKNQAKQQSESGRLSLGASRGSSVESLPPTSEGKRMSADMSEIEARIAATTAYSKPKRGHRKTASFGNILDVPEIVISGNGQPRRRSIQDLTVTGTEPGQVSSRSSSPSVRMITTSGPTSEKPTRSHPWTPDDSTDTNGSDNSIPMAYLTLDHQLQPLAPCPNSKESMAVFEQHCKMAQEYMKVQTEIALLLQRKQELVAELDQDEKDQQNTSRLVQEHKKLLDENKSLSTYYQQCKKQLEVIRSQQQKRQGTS

[8] = target: T1, Mitogen-activated protein kinase kinase kinase 7; assay: Inhibition of recombinant FLAG-tagged TAK1 kinase domain (unknown origin) expressed in baculovirus expression system coexpressing TAB using biotin-labeled MKK6kd substrate incubated for 1 hr by AlphaScreen assay
Liver cytosol [9] = assay: Drug level in human liver cytosol treated with N-(2-Methoxy-4-((3-(4-methylpiperazin-1-yl)propyl)carbamoyl)phenyl)thieno[3,2-d]pyrimidine-7-carboxamide after 30 mins in presence of NADPH by LC-MS/MS analysis; type: ADME, tissue-based; conditions: 0.5 h
[10] = Drug level in mouse liver cytosol treated with N-(2-Methoxy-4-((3-(4-methylpiperazin-1-yl)propyl)carbamoyl)phenyl)thieno[3,2-d]pyrimidine-7-carboxamide after 30 mins in presence of NADPH by LC-MS/MS analysis; type: ADME, tissue-based; conditions: 0.5 h
[11] = Apparent permeability in human Caco2 cells; type: ADME, cell-based; conditions: Caco-2
[12] = target: T1, Mitogen-activated protein kinase kinase kinase 7; assay: Inhibition of human recombinant TAK1 fused with TAB1 using MKK6 as substrate in presence of gamma-[33P]ATP
[13] = target: T1, Mitogen-activated protein kinase kinase kinase 7; assay: Inhibition of TAK1 (unknown origin)

microsomal CLint at 1 µM [1]	solubility at 24 h [2]	solubility at 24 h [3]	SMILES	also measured
11 µL/min/mg	351 µg/mL (≈ 915 µM)	353 µg/mL (≈ 921 µM)	COc1cc(N2CCN(C)CC2)ccc1NC(=O)c1csc2cncnc12	–
26 µL/min/mg	312 µg/mL (≈ 758 µM)	293 µg/mL (≈ 712 µM)	COc1cc(C(=O)N2CCN(C)CC2)ccc1NC(=O)c1csc2cncnc12	–
21 µL/min/mg	420 µg/mL (≈ 896 µM)	377 µg/mL (≈ 805 µM)	COc1cc(C(=O)NCCCN2CCN(C)CC2)ccc1NC(=O)c1csc2cncnc12	microsomal CLint at 1 µM [4]: 80 µL/min/mg; Drug metabolism (Liver cytosol [5]): metabolite_detected; Drug metabolism [6]: metabolite_detected
–	–	–	Cc1cc(NC(=O)Nc2cc(C(C)(C)C)nn2-c2cccc(C#N)c2)ccc1Oc1ccncc1	IC50 [7]: 156 nM
–	< 3 µg/mL	< 3 µg/mL	COc1cc2ncccc2cc1NC(=O)c1csc2cncnc12	–
–	–	–	CCc1cc(Nc2ncc(F)c(-c3cnc4cccnn34)n2)cc(OCCN2CCC(O)CC2)c1	IC50 [8]: 8 nM
–	–	–	COc1cc(C(=O)NCCCN2CCN(C)CC2)ccc1NC(=O)c1csc2c(=O)[nH]cnc12	Drug metabolism (Liver cytosol [9]): metabolite_detected; Drug metabolism [10]: metabolite_detected
–	–	–	CC(C)Oc1c(NC(=O)c2csc3c(=O)[nH]cnc23)cccc1C(=O)N1CCN(C)CC1	Papp [11]: < 1 ×10⁻⁶ cm/s
–	–	–	C[C@H]1OC2C3=C(C(=O)[C@@H]4O[C@@H]4[C@H]3O)C1[C@@H]1[C@@H](C)OC=C3[C@H](O)[C@H]4O[C@H]4C(=O)[C@@]321 (stereo partly specified)	IC50 [12]: 20000 nM
–	–	–	COCCN1CCN(Cc2ccc(-c3cc(NC(N)=O)c(C(N)=O)s3)cc2)CC1	IC50 [13]: 50 nM
